# “Also recorded” adds a separate entry of the source.
# What was measured:
# hTGR5 [1] = target: T1, hTGR5 (Homo sapiens, UniProt Q8TDU6); assay: TGR5-dependent cAMP accumulation (ELISA) in transfected 293T cells; format: cell-based
# T1 construct: expressed in transfected cells; host or cells: 293T cells, transient transfection with pTGR5 (gift from Prof. Johan Auwerx)
# T1 sequence (Q8TDU6 1-330): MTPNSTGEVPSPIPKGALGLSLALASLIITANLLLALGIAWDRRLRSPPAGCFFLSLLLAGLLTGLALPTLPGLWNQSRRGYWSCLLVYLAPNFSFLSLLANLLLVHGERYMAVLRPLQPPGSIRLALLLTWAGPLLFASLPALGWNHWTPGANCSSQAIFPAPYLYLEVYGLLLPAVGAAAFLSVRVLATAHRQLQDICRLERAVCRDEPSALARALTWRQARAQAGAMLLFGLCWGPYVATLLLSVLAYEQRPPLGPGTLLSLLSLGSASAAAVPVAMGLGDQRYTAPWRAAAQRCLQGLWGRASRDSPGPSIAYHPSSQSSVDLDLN
# Description: For human TGR5 luciferase (luc) assay, 293T cells were co-transfected with pCRE-luc, pTGR5 (kind gift from Prof. Johan Auwerx, Ecole Polytechnique Fédérale de Lausanne, Lausanne, Switzerland) and pRenilla (Promega, USA). WB403 was added 5 h later. Cells were harvested after 16 h and subjected to luciferase analysis on Lumistar Optima chemiluminescent detector (BMG labtech, Germany). For cAMP testing, 293T cells transiently transfected with pTGR5 or pGPR119 (GeneCopoeia, USA) were washed by FBS-free DMEM, and stimulated with WB403 in FBS-free DMEM containing 3-isobutyl-1-methyl-xanthine (IBMX, Sigma). Cell lysates were collected 30 min later and used for cAMP ELISA assay. FLIPR Calcium 5 assay kit (Molecular Devices, USA) was used for calcium mobilization assay. […] Increase of the intracellular Ca^2+ concentration was monitored by Flexstation 3 system (Molecular Devices, USA).
# The GLP-1 (active) ELISA kit was purchased from Millipore, and insulin ELISA kit was from Mercodia. For quantitative determination of cAMP, a competitive enzyme immunoassay kit from R&D system was used. […]
# Fig 1 WB403 activated TGR5 and promoted active GLP-1 secretion. […] Gallbladders (GB) were removed 30 min later and volumes measured then normalized to body weight (B.W.). n = 10. **p<0.01 vs. vehicle group. […]
# [2] = pharmacokinetic test in Sprague-Dawley rats; format: in vivo; conditions: male, plasma, rat
# Description: Adult male Sprague-Dawley rats fasted for 12 h were randomized into two groups (n = 5) for intravenous injection (i.v.) or oral administration (p.o.). Blood samples were collected from the orbital plexus at 10, 20, 30, 40, 60, 90, 120, 150, 180, 240, 360 and 480 min after administration. The concentration of WB403 in plasma was determined by an Aligent Technologies 1260 series HPLC system with a DAD detector. The oral bioavailability (F%) was calculated as F (%) = AUC0-∞(p.o.) / AUC0-∞(i.v.) × Dose (i.v.) / Dose (p.o.).
# hTGR5 [3] = target: T1, hTGR5; assay: human TGR5 CRE-luciferase assay in co-transfected 293T cells; format: cell-based
# Description: For human TGR5 luciferase (luc) assay, 293T cells were co-transfected with pCRE-luc, pTGR5 (kind gift from Prof. Johan Auwerx, Ecole Polytechnique Fédérale de Lausanne, Lausanne, Switzerland) and pRenilla (Promega, USA). WB403 was added 5 h later. Cells were harvested after 16 h and subjected to luciferase analysis on Lumistar Optima chemiluminescent detector (BMG labtech, Germany). For cAMP testing, 293T cells transiently transfected with pTGR5 or pGPR119 (GeneCopoeia, USA) were washed by FBS-free DMEM, and stimulated with WB403 in FBS-free DMEM containing 3-isobutyl-1-methyl-xanthine (IBMX, Sigma). Cell lysates were collected 30 min later and used for cAMP ELISA assay. FLIPR Calcium 5 assay kit (Molecular Devices, USA) was used for calcium mobilization assay. 293-GPR40 stable cells (kindly provided by Prof. Naiming Zhou of Zhejiang University, Hanzhou, China) or 293 cells transient transfected with GPR120 were seeded at 50,000 cells per well in black-walled clear-bottomed 96-well plates (Costar). An equal volume of loading buffer containing Fluo 4-AM was added the following day and cells were incubated for 1 h before stimulated with compounds. Increase of the intracellular Ca^2+ concentration was monitored by Flexstation 3 system (Molecular Devices, USA).
# Fig 1 WB403 activated TGR5 and promoted active GLP-1 secretion. (A) WB403 stimulated hTGR5 in CRE-luciferase report system at the concentration range of 1–20 μmol/l. (B) WB403 stimulated hTGR5 specific cAMP accumulation at the concentration range of 1–50 μmol/l. n = 3. **p<0.01, ***p<0.001 vs. DMSO (+TGR5) group. (C) The hTGR5 targeted CRE-luciferase activity of WB403 and ZY403. […] (D) Effect of WB403 and ZY403 on gallbladders of mice. Normal mice were fasted overnight and treated with compounds (200 mg/kg) or vehicle (DMSO) by ip injection. Gallbladders (GB) were removed 30 min later and volumes measured then normalized to body weight (B.W.). n = 10. **p<0.01 vs. vehicle group. (E) Structure of WB403 and ZY403. WB403 promoted GLP-1 secretion in NCI-H716 cells (F), primary enterocytes (G), and MIN6 cells (H). n = 3. *p<0.05, **p<0.01, ***p<0.001 vs. vehicle group. (I) WB403 promoted GLP-1 in ICR mice. n = 5. **p<0.01 vs. vehicle group. Values represent mean ± SEM.
# NCI-H716 cells = assay: active GLP-1 secretion in NCI-H716 cells; format: cell-based, human; conditions: 10 μmol/l, 30 min
# Description: Endocrine differentiation was induced by seeding NCI-H716 cells in plates coated with Matrigel (Becton Dickinson). Cells were washed with RPMI-1640 medium without FBS and incubated in the same medium containing indicated compounds at 10 μmol/l. The condition medium was collected after 30 min. GLP-1 secretion in MIN6 or primary enterocytes was conducted similarly. To isolate primary enterocytes, ileum or colon was cut into 2 cm length, rinsed by PBS (pH7.2∼7.4) before dispersed in 10 mmol/l EDTA/PBS (pH7.4) for 15 min at room temperature, followed by pipetting up and down. Enterocytes were collected by filtration through a 70 μm cell strainer. To study the effect of WB403 on GLP-1 secretion in vivo, mice in group of three were fasted overnight and orally received 0, 50, 100 mg/kg of WB403 dispersed in 0.5% CMC with a DPP-4 inhibitor (5 mg/kg). There were 5 animals in each group. 2 g/kg glucose was administrated 30 min later and blood was collected 10 min after glucose challenge.
# The GLP-1 (active) ELISA kit was purchased from Millipore, and insulin ELISA kit was from Mercodia. For quantitative determination of cAMP, a competitive enzyme immunoassay kit from R&D system was used. All immunoassays were performed according to manufacturers’ instructions.
# [4] = control 293T cells transfected with an empty plasmid
# [5] = iv, i.v. 40 mg/kg, mean ± SEM, n = 5
# [6] = po, p.o. 40 mg/kg, mean ± SEM, n = 5
smiles,measurement,setting,value
"CCc1cc(-c2nc(C)c(COCc3ccc(Br)cc3)s2)ccn1 [WB403, 4-(5-((4-bromobenzyloxy)-methyl)-4-methylthiazol-2-yl)-2-ethylpyridine]",Gs-coupled cAMP accumulation through TGR5,"hTGR5 [1]; 1–50 μmol/l, 30 min, IBMX, Fig 1B",dose-dependently stimulate
same,cAMP activity in control 293T cells,hTGR5 [1]; [4],no stimulation
same,AUC(0-inf),[2]; [5],26900 ng·h/mL
same,AUC(0-t),[2]; [5],25000 ng·h/mL
same,C0,[2]; [5],25700 ± 4600 ng/mL
same,half-life,[2]; [5],2.77 ± 0.43 h
same,bioavailability,"[2]; oral, p.o. 40 mg/kg vs i.v. 40 mg/kg, from AUC0-∞",12%
same,AUC(0-inf),[2]; [6],3220 ng·h/mL
same,AUC(0-t),[2]; [6],2280 ng·h/mL
same,Cmax,[2]; [6],980 ± 160 ng/mL
same,Tmax,[2]; [6],1.4 h
same,half-life,[2]; [6],2.94 ± 1.08 h
same,stimulation of luciferase reaction through TGR5,"hTGR5 [3]; 1–20 μmol/l, Fig 1A",dose-dependently stimulate
same,EC50,"hTGR5 [3]; CRE-luciferase, 293T cells, read-out: TGR5 EC50",5.5 µM
same,luciferase activity in control 293T cells,hTGR5 [3]; [4],no stimulation
same,TGR5 luciferase activity in primary screen (fold increase compared to DMSO control),"hTGR5 [3]; screen of 100 compounds, S1 Fig",relatively lower luciferase activity
same,GLP-1 stimulation in NCI-H716 cells,NCI-H716 cells,much higher GLP-1 stimulation capacity; also recorded: outstanding effect in GLP-1 stimulation
